Measured values from US5059601A, “Imidazolone derivatives with activity on central nervous system and antihypertensive activity, preparation methods thereof, and pharmaceutical compositions containing them” (Istituto Lusofarmaco d'Italia S.p.A., priority 1989, dated 1991).

Columns and labels:
SHR rat = assay: antihypertensive activity in SHR rat after oral administration; assay type: in vivo; details: dose of 10 mg/kg/os
From the text: Said compounds have in vitro good affinity against D2, 5-HT2, α1 receptors determined towards [3H]Spiperone, [3H]-ketanserine, and [3H]-prazosine respectively, using the methods described by Y.Z. Fields, R.D. Reisine, H.I. Yamamura, Brain Research 136, 578 (1977); Y.E. Leysen, C.Y.E. Nyemegers, Y.M. Van Neuten, P.M. Endladurong, Mol Pharmacol. 21, 322 (1981); P. Greengrass, R. Bremner, Eur. J. Pharmacol. 55, 323 (1979). They show a reduced toxicity in vivo, a good activity on central nervous system in various behaviour tests (e.g. stereotypy caused by apomorfine, central dopaminergic neuronal firing) and a good antihypertensive activity (determined in SHR rat after oral administration using the method reported by J. Pfeffer and others, J. Lab. Clin. Med. 78, 957 (1971)).

[1] = toxicity in rat (DL50, oral); details: in vivo, read-out: toxicity in rat expressed as DL50

COc1ccccc1N1CCN(CCc2[nH]c(=O)[nH]c2-c2ccc(F)cc2)CC1 [4-(4-fluorophenyl)-1,3-dihydro-5-[2-(4-(2-methoxyphenyl)-1-piperazinyl)ethyl]-2H-imidazol-2-one]
decrease in systolic pressure (SHR rat): about 21%
LD50 [1]: > 2000 mg/kg
